Test results taken from patent publication US20230355647A1, “Marker for determining anti-cancer effects of mitochondrial oxidative phosphorylation pathway inhibitor” (NANJING SHIJIANG MEDICINE TECHNOLOGY CO., LTD, priority 2020, published 2023).

How the values were obtained:
NCI-H1155 = test: Cell viability (CellTiter-Glo), NCI-H1155; format: cell-based; conditions: Homo sapiens; NCI-H1155 cell line, 3-4 days of culture
Method: (§1) Cell viability was detected using the Promega CellTiter-Glo kit, the kit reflected cell viability by directly measuring intracellular ATP content. The inhibitory effect (IC50 value) of Gboxin, a mitochondrial oxidative phosphorylation pathway inhibitor, on different tumor cell lines was tested in the Example. The name, source, and culture condition of each tumor cell line were as follows:
Cell line NCI-H1155 (ATCC, No. CRL-5818) was cultured in serum-free ACL-4 medium (+P/S).
(§2) The above tumor cells were cultured in the relevant medium (+P/S), and incubated for 3 h, then the gradient diluted Gboxin was added, and IC50 (50% inhibiting concentration) was measured after 3-4 days of culture.

MJ = test: Cell viability (CellTiter-Glo), MJ; format: cell-based; conditions: Homo sapiens; MJ cell line, 3-4 days of culture
Method: as §1
Cell line MJ (ATCC, No. CRL-8294) was cultured 20% fetal bovine serum-containing IMDM medium (+P/S).
as §2

C3A = test: Cell viability (CellTiter-Glo), C3A; format: cell-based; conditions: Homo sapiens; C3A cell line, 3-4 days of culture
Method: as §1
Cell line C3A (ATCC, No. CRL-10741) was cultured in 10% fetal bovine serum-containing EMEM medium (+P/S).
as §2

SW48 = test: Cell viability (CellTiter-Glo), SW48; format: cell-based; conditions: Homo sapiens; SW48 cell line, 3-4 days of culture
Method: as §1, with “follows: Cell line SW48 (ATCC, No. CCL-231) was cultured in 10% fetal bovine serum-containing Leibovitz's L-15 medium (+P/S). […] Cell viability was detected using the Promega CellTiter-Glo kit, the kit reflected cell viability by directly measuring intracellular ATP content.” for “follows:”

[1] = test system: brain tumors and other tumors; conditions: study published in Nature (2019); cited from earlier work
NCI-H196 = test: Cell viability (CellTiter-Glo), NCI-H196; format: cell-based; conditions: NCI-H196 cell line, 3-4 days of culture
Method: as §1
Cell line NCI-H196 (ATCC, No. CRL-5823) was cultured in 10% fetal bovine serum-containing RPMI1640 medium (+P/S).
as §2

U-937 = test: Cell viability (CellTiter-Glo), U-937; format: cell-based; conditions: Homo sapiens; U-937 cell line, 3-4 days of culture
Method: as §1
Cell line U-937 (ATCC, No. CRL-1593.2) was cultured in 10% fetal bovine serum-containing RPMI1640 medium (+P/S).
as §2

HH = test: Cell viability (CellTiter-Glo), HH; format: cell-based; conditions: Homo sapiens; HH cell line, 3-4 days of culture
Method: as §1
Cell line HH (ATCC, No. CRL-2105) was cultured in 10% fetal bovine serum-containing RPMI1640 medium (+P/S).
as §2

NCI-H1793 = test: Cell viability (CellTiter-Glo), NCI-H1793; format: cell-based; conditions: Homo sapiens; NCI-H1793 cell line, 3-4 days of culture
Method: as §1
Cell line NCI-H1793 (ATCC, No. CRL-5896) was cultured in 5% fetal bovine serum-containing HITES medium (+P/S).
as §2

DU 145 = test: Cell viability (CellTiter-Glo), DU 145; format: cell-based; conditions: Homo sapiens; DU 145 cell line, 3-4 days of culture
Method: as §1
Cell line DU 145 (ATCC, No. HTB-81) was cultured in 10% fetal bovine serum-containing EMEM medium (+P/S).
as §2

G-402 = test: Cell viability (CellTiter-Glo), G-402; format: cell-based; conditions: Homo sapiens; G-402 cell line, 3-4 days of culture
Method: as §1
Cell line G-402 (ATCC, No. CRL-1440) was cultured in 10% fetal bovine serum-containing McCoy's 5a medium (+P/S).
as §2

OCI-M1 = test: Cell viability (CellTiter-Glo), OCI-M1; format: cell-based; conditions: OCI-M1 cell line, 3-4 days of culture
Method: as §1
Cell line OCI-M1 (DSMZ, No. ACC-529) was cultured in 20% fetal bovine serum-containing IMDM medium (+P/S).
as §2

Gp2D = test: Cell viability (CellTiter-Glo), Gp2D; format: cell-based; conditions: Homo sapiens; Gp2D cell line, 3-4 days of culture
Method: as §1
Cell line Gp2D (ECACC, No. 95090714) was cultured in 10% fetal bovine serum-containing DMEM medium (+P/S).
as §2

G-361 = test: Cell viability (CellTiter-Glo), G-361; format: cell-based; conditions: Homo sapiens; G-361 cell line, 3-4 days of culture
Method: as §1
Cell line G-361 (ATCC, No. CRL-1424) was cultured in 10% fetal bovine serum-containing McCoy's 5a medium (+P/S).
as §2

MDA-MB-231 = test: Cell viability (CellTiter-Glo), MDA-MB-231; format: cell-based; conditions: Homo sapiens; MDA-MB-231 cell line, 3-4 days of culture
Method: as §1
Cell line MDA-MB-231 (ATCC, No. HTB-26) was cultured in 10% fetal bovine serum-containing Leibovitz's L-15 medium (+P/S).
as §2

AM-38 = test: Cell viability (CellTiter-Glo), AM-38; format: cell-based; conditions: Homo sapiens; AM-38 cell line, 3-4 days of culture
Method: as §1
Cell line AM-38 (JCRB, No. IF050492) was cultured in EMEM medium containing 20% heat-inactivated fetal bovine serum (+P/S).
as §2

MDA-MB-453 = test: Cell viability (CellTiter-Glo), MDA-MB-453; format: cell-based; conditions: Homo sapiens; MDA-MB-453 cell line, 3-4 days of culture
Method: as §1, with “follows: Cell line MDA-MB-453 (ATCC, No. HTB-131) was cultured in 10% fetal bovine serum-containing Leibovitz's L-15 medium (+P/S). […] Cell viability was detected using the Promega CellTiter-Glo kit, the kit reflected cell viability by directly measuring intracellular ATP content.” for “follows:”

H9 = test: Cell viability (CellTiter-Glo), H9; format: cell-based; conditions: Homo sapiens; H9 cell line, 3-4 days of culture
Method: as §1
Cell line H9 (ATCC, No. HTB-176) was cultured in 10% fetal bovine serum-containing RPMI1640 medium (+P/S).
as §2

With `CCc1n(CC(=O)O[C@@H]2C[C@H](C)CC[C@H]2C(C)C)c2ccccc2[n+]1C.[Cl-]` [Gboxin] the IC50 (NCI-H1155) was 8.84 µM, the IC50 (MJ) was 12.9 µM and the IC50 (C3A) was 25.7 µM. For the same molecule, the IC50 (SW48) was 1.54 µM, the “killing effect on brain tumors and other tumors” value [1] was “excellent killing effect” and the IC50 (NCI-H196) was 19.3 µM. The IC50 (U-937) was 4.06 µM, the IC50 (HH) was 2.67 µM and the IC50 (NCI-H1793) was 16 µM. It also gave an IC50 (DU 145) of 9.91 µM, an IC50 (G-402) of 2.82 µM and an IC50 (OCI-M1) of 21.7 µM. It also gave an IC50 (Gp2D) of 13.3 µM, an IC50 (G-361) of 3.88 µM and an IC50 (MDA-MB-231) of 17.8 µM. It also gave an IC50 (AM-38) of 10.3 µM, an IC50 (MDA-MB-453) of 0.942 µM and an IC50 (H9) of 3.34 µM.
